# From patent US6558650B1, “Enhancement of cellular gallium uptake” (Oregon Health and Science University, priority 1998, dated 2003)
# Key:
# [1] = system: TfR− and TfR+ cells (Chinese Hamster Ovary); assay: Cellular uptake of Ga-67, text statements that do not separate TfR− and TfR+ cells; type: cell-based
# Excerpt: (§1) A pair of transfected Chinese Hamster Ovary cells lines were used to compare, in a controlled manner, the Tf-dependent and Tf-independent systems for the uptake of Ga-67.
# (§2) The two cell lines are identical except that TfR-cells express no TfR, and TfR+ cells over-express the transfected human TfR constitutively. This means that expression of the TfR is independent of cell growth or iron content, which could alter the cells matabolically in many ways that may confound a well-controlled experimental determination of cause and effect. TfR− and TfR+ cells were grown in monolayer and maintained as previously described (37).
# The tube was placed on its side on the surface of a cool, daylight color-balanced, fluorescent light box (Just Normlicht).
# The temperature at the surface of the light box was 29° C. for the fluorescent light box, and 37° C. for the UV light box. The PDN was added to 10 ml of incubation solution (below) to achieve concentrations ranging from 0.25 μM to 100 μM. Each 10 ml sample of incubation solution contained an equal quantity of ethanol (approximately 100 µl per 10 ml), including the controls.
# Following growth of cells in 25 cm^2 flasks to subconfluence, monolayers of cultured cells were first washed, and then pre-incubated for 2 hours at 37° C. with 5 ml serum-free Dulbecco's Modified Essential Medium (DMEM) to deplete the cells of Tf. The pre-incubation medium was then removed and replaced by 1.5 ml of the incubation solution containing 10 uCi/ml carrier-free Ga-67 citrate (Mallinckrodt) in Hank's Balanced Salt solution (HBSS), pre-warmed to 37° C. The concentration of Ga-67 in the incubation solution was approximately 0.25 nM. The HBSS, pH 7.2-7.4, contained 3.7 g/L NaHCO3, 1 mM CaCl2, and 1 mM magnesium salts. Cells were incubated in the PDN- and Ga-67-containing solutions in a CO2 incubator at 37° C. for intervals ranging from 10 seconds to 90 minutes. All experiments were conducted in the dark.
# Following incubation of cells with Ga-67, the flasks were immediately placed on ice. The radioactive material was removed by aspiration with a Pasteur pipette attached to water suction. The monolayers were washed 3 times with 5 ml each ice cold HBSS. Cells were washed once with phosphate-buffered saline (PBS), pre-warmed to 37° C. The PBS was removed and the cellular monolayer overlaid with 1.5 ml 0.25% trypsin containing 1 mM EDTA. The trypsin was immediately removed and the cells were incubated briefly (1 minute) at 37° C. The cells in each flask were then dislodged by several gentle mechanical blows to the side of the flask and collected in 200 μl ice cold PBS.
# By a modification of a method previously published for radiolabeling of protozoan parasites (38), the cells were then separated from unbound contaminating radioactivity. The 200 μl of cells in PBS were layered gently over 200 μl of an 8.5:1.5 ratio of dibutylpthalate:liquid paraffin oil in a 1.5 ml microfuge tube. With care not to agitate the mixture, the tubes were than centrifuged at 12,000 rpm for 2 minutes in a microfuge. The supernatant and the oil was then aspirated carefully from the top of the tube with a Pasteur pipette attached to water suction. The bottom of the microfuge tube, containing the cell pellet (typical pellet volume˜100 μl), was then clipped with a microfuge tube clipper into a counting vial containing 900 μl of a solution of 200 mM NaOH. 1% SDS. The cell pellet was dissolved in this solution. The content of radioactivity in the samples was determined by a gamma well counting (Packard) in comparison to standard dilutions of the original Ga-67 incubation solution.
# Protein assays were performed on the solubilized cell samples by formation of a cuprous bicinchonicic acid complex using a spectrophotometric microtiter plate reader (Dynatech) (39). The method and reagents used are supplied in a kit (Pierce) and were performed according to the manufacturer's directions.
# [2] = system: nucleated rabbit erythrocytes; details: isolated nitroso-derivative compared with crude photo-degraded nifedipine (44); cited from earlier work
# [3] = system: TfR− cells (transfected Chinese Hamster Ovary cells expressing no TfR); details: 0.5 h, 25 µM
# Excerpt: as §1, §2
# (§3) The tube was placed on its side on the surface of a cool, daylight color-balanced, fluorescent light box (Just Normlicht). […]
# (§4) The temperature at the surface of the light box was 29° C. for the fluorescent light box, and 37° C. for the UV light box. […] Each 10 ml sample of incubation solution contained an equal quantity of ethanol (approximately 100 µl per 10 ml), including the controls. […]
# (§5) By a modification of a method previously published for radiolabeling of protozoan parasites (38), the cells were then separated from unbound contaminating radioactivity. […] The content of radioactivity in the samples was determined by a gamma well counting (Packard) in comparison to standard dilutions of the original Ga-67 incubation solution. […]
# [4] = system: TfR+ cells (transfected Chinese Hamster Ovary cells over-expressing human TfR); details: 0.5 h, 25 µM
# Excerpt: as §1, §2, §3, §4, §5
# [5] = oral; cited from earlier work
Structure (SMILES),effect on Ga-67 uptake ([1]; light-protected compound),effect on Ga-67 uptake ([1]; photo-irradiated compound),further results
"CC(=O)c1c(C)nc(C)c(C(C)=O)c1-c1ccccc1N=O [nitroso-derivative, 2,6-dimethyl-3,5-diacetyl-4-(2′-nitrosophenyl)-pyridine]",–,–,"gallium uptake (inferred from conditions that correlate with presence of the nitroso-derivative) ([1]; not tested in isolation, inferred from Example 3 data): enhances gallium uptake; pharmacological action in enhancing the uptake of Fe^2+ [2]: same pharmacological action as “crude” photo-degraded nifedipine"
COc1ccc(CCN(C)CCCC(C#N)(c2ccc(OC)c(OC)c2)C(C)C)cc1OC (centres unmarked) [verapamil],None of the light-protected or photo-irradiated compounds had an effect,None of the light-protected or photo-irradiated compounds had an effect,–
COC(=O)C1=C(C)NC(C)=C([N+](=O)[O-])C1c1ccccc1C(F)(F)F (centres unmarked) [BAY K 8644],None of the light-protected or photo-irradiated compounds had an effect,None of the light-protected or photo-irradiated compounds had an effect,–
"COC(=O)C1=C(C)NC(C)=C(C(=O)OC)C1c1ccccc1[N+](=O)[O-] [Nifedipine, dimethyl 1,4-dihydro-2,6-dimethyl-4-(2-nitrophenyl)-3,5-pyridinedicarboxylate]",–,–,"fmoles Ga-67/mg Total Cellular Protein, TfR− cells [3]: .171 fmoles Ga-67/mg Total Cellular; fmoles Ga-67/mg Total Cellular Protein, TfR+ cells [4]: 0.296 fmoles Ga-67/mg Total Cellular; time to peak plasma levels post ingestion [5]: approximately 30 minutes"
COc1ccc([C@@H]2Sc3ccccc3N(CCN(C)C)C(=O)[C@@H]2OC(C)=O)cc1 [diltiazem],None of the light-protected or photo-irradiated compounds had an effect,None of the light-protected or photo-irradiated compounds had an effect,–
